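Cells were grown in 96-well plates and exposed to each compound for 48 hours at five concentrations; endpoints were interpolated linearly between bracketing concentrations, or set to the highest concentration if not reached. GI50 is the concentration that inhibits growth by half. TGI: total growth inhibition.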
Columns and labels:
Experiment in all cases: inhibition of tumour cell growth, NCI panel, 48 h
LOX IMVI melanoma = test system: LOX IMVI melanoma
SK-OV-3 ovarian = test system: SK-OV-3 ovarian
K-562 leukemia = test system: K-562 leukemia
EKVX NSCLC = test system: EKVX NSCLC
OVCAR-4 ovarian = test system: OVCAR-4 ovarian
CAKI-1 renal = test system: CAKI-1 renal
SK-MEL-2 melanoma = test system: SK-MEL-2 melanoma
COLO 205 colon = test system: COLO 205 colon
HCC-2998 colon = test system: HCC-2998 colon
A549 NSCLC = test system: A549 NSCLC
SN12C renal = test system: SN12C renal
RPMI-8226 leukemia = test system: RPMI-8226 leukemia
HCT-116 colon = test system: HCT-116 colon
HS 578T breast = test system: HS 578T breast
OVCAR-3 ovarian = test system: OVCAR-3 ovarian
SNB-75 CNS = test system: SNB-75 CNS
HCT-15 colon = test system: HCT-15 colon
NCI/ADR-RES ovarian = test system: NCI/ADR-RES ovarian
UO-31 renal = test system: UO-31 renal
DU-145 prostate = test system: DU-145 prostate
SF-268 CNS = test system: SF-268 CNS
SW-620 colon = test system: SW-620 colon
KM12 colon = test system: KM12 colon
SF-295 CNS = test system: SF-295 CNS
ACHN renal = test system: ACHN renal
M14 melanoma = test system: M14 melanoma
T-47D breast = test system: T-47D breast
IGROV1 ovarian = test system: IGROV1 ovarian
MOLT-4 leukemia = test system: MOLT-4 leukemia
NCI-H460 lung = test system: NCI-H460 lung
MDA-MB-231 breast = test system: MDA-MB-231 breast
UACC-257 melanoma = test system: UACC-257 melanoma
MDA-MB-435 = test system: MDA-MB-435
U251 CNS = test system: U251 CNS
TK-10 renal = test system: TK-10 renal
SK-MEL-5 melanoma = test system: SK-MEL-5 melanoma
786-0 renal = test system: 786-0 renal
NCI-H23 lung = test system: NCI-H23 lung
SNB-19 CNS = test system: SNB-19 CNS
UACC-62 melanoma = test system: UACC-62 melanoma
SR leukemia = test system: SR leukemia
HOP-62 NSCLC = test system: HOP-62 NSCLC
BT-549 breast = test system: BT-549 breast
SK-MEL-28 melanoma = test system: SK-MEL-28 melanoma
MALME-3M melanoma = test system: MALME-3M melanoma
SF-539 CNS = test system: SF-539 CNS
NCI-H226 lung = test system: NCI-H226 lung
RXF 393 renal = test system: RXF 393 renal
CCRF-CEM leukemia = test system: CCRF-CEM leukemia
OVCAR-8 ovarian = test system: OVCAR-8 ovarian
OVCAR-5 ovarian = test system: OVCAR-5 ovarian
HT29 colon = test system: HT29 colon
MCF7 breast = test system: MCF7 breast
PC-3 prostate = test system: PC-3 prostate
HL-60(TB) leukemia = test system: HL-60(TB) leukemia
NCI-H522 lung = test system: NCI-H522 lung
HOP-92 NSCLC = test system: HOP-92 NSCLC
A498 renal = test system: A498 renal

## Cc1cc(I)cc(CN(C)CCN(C)C)c1O
LOX IMVI melanoma
  GI50: 24.4 µM
  TGI: > 73.1 µM
SK-OV-3 ovarian
  GI50: 76.6 µM
  TGI: > 100 µM
K-562 leukemia
  GI50: 24.9 µM
  TGI: > 64.3 µM
EKVX NSCLC
  GI50: 61.5 µM
  TGI: > 100 µM
OVCAR-4 ovarian
  GI50: 52.2 µM
  TGI: > 100 µM
CAKI-1 renal
  GI50: 26.7 µM
  TGI: > 80.4 µM
SK-MEL-2 melanoma
  GI50: 22.1 µM
  TGI: 44.2 µM
COLO 205 colon
  GI50: 17.3 µM
  TGI: 33.3 µM
HCC-2998 colon
  GI50: 16.3 µM
  TGI: 32.1 µM
A549 NSCLC
  GI50: 46.6 µM
  TGI: > 100 µM
SN12C renal
  GI50: 47.4 µM
  TGI: > 100 µM
RPMI-8226 leukemia
  GI50: 15.5 µM
  TGI: 51.6 µM
HCT-116 colon
  GI50: 24.9 µM
  TGI: > 100 µM
HS 578T breast
  GI50: 26 µM
  TGI: > 69 µM
OVCAR-3 ovarian
  GI50: 41.9 µM
  TGI: > 100 µM
SNB-75 CNS
  GI50: 21.9 µM
  TGI: 59.9 µM
HCT-15 colon
  GI50: 28.5 µM
  TGI: 76.5 µM
NCI/ADR-RES ovarian
  GI50: 38.1 µM
  TGI: > 100 µM
UO-31 renal
  GI50: 40.7 µM
  TGI: > 100 µM
DU-145 prostate
  GI50: 44.4 µM
  TGI: > 100 µM
SF-268 CNS
  GI50: 20.7 µM
  TGI: > 73 µM
SW-620 colon
  GI50: 39.5 µM
  TGI: > 100 µM
KM12 colon
  GI50: 46.3 µM
  TGI: > 100 µM
SF-295 CNS
  GI50: 20.5 µM
  TGI: 56.8 µM
ACHN renal
  GI50: 39.6 µM
  TGI: > 100 µM
M14 melanoma
  GI50: 16 µM
  TGI: 31.8 µM
T-47D breast
  GI50: 28.8 µM
  TGI: > 100 µM
IGROV1 ovarian
  GI50: 27.7 µM
  TGI: 82.7 µM
MOLT-4 leukemia
  GI50: 26.6 µM
  TGI: > 68.6 µM
NCI-H460 lung
  GI50: 26.7 µM
  TGI: > 100 µM
MDA-MB-231 breast
  GI50: 26.7 µM
  TGI: > 72.3 µM
UACC-257 melanoma
  GI50: 39.3 µM
  TGI: > 62 µM
MDA-MB-435
  GI50: 18.8 µM
  TGI: 48.9 µM
U251 CNS
  GI50: 39.2 µM
  TGI: > 100 µM
TK-10 renal
  GI50: 33.1 µM
  TGI: > 100 µM
SK-MEL-5 melanoma
  GI50: 16.5 µM
  TGI: 30.3 µM
786-0 renal
  GI50: 40.1 µM
  TGI: > 100 µM
NCI-H23 lung
  GI50: 33.1 µM
  TGI: > 100 µM
SNB-19 CNS
  GI50: 64.3 µM
  TGI: > 100 µM
UACC-62 melanoma
  GI50: 17.8 µM
  TGI: 33 µM
SR leukemia
  GI50: 5.44 µM
  TGI: 50.4 µM
HOP-62 NSCLC
  GI50: 37.8 µM
  TGI: > 100 µM
BT-549 breast
  GI50: 26.8 µM
  TGI: > 78.3 µM
SK-MEL-28 melanoma
  GI50: 18.2 µM
  TGI: 33.4 µM
MALME-3M melanoma
  GI50: 18.9 µM
  TGI: 36.8 µM
SF-539 CNS
  GI50: 30.7 µM
  TGI: > 82.8 µM
NCI-H226 lung
  GI50: 75.3 µM
  TGI: > 100 µM
RXF 393 renal
  GI50: 25.5 µM
  TGI: > 84.8 µM
CCRF-CEM leukemia
  GI50: < 35.4 nM
OVCAR-8 ovarian
  GI50: 60 µM
  TGI: > 100 µM
OVCAR-5 ovarian
  GI50: 55.7 µM
  TGI: > 100 µM
HT29 colon
  GI50: 19.4 µM
  TGI: 41.9 µM
MCF7 breast
  GI50: 25.6 µM
  TGI: 66.1 µM
PC-3 prostate
  GI50: 29.1 µM
  TGI: > 100 µM
HL-60(TB) leukemia
  GI50: 19.7 µM
  TGI: 55.9 µM
NCI-H522 lung
  GI50: 36.8 µM
  TGI: > 100 µM
HOP-92 NSCLC
  GI50: 17.1 µM
  TGI: 67.3 µM
A498 renal
  GI50: 33.8 µM
  TGI: > 77.9 µM
